Data published in article PMC12131194, “Rational design, synthesis, and evaluation of novel polypharmacological compounds targeting NaV1.5, KV1.5, and K2P channels for atrial fibrillation” (The Journal of Biological Chemistry, 2025).

Columns and labels:
human NaV1.5 = molecular target: T1, human NaV1.5 (Homo sapiens, UniProt Q14524); assay: Whole-cell patch-clamp in transfected HEK-293 cells, NaV1.5; assay type: cell-based; settings: 10 μM and 100 μM, −10 mV
T1 construct: host or cells: HEK-293 (transient transfection)
Experimental: The human embryonic kidney 293 (HEK-293) cell line was obtained from the American Type Culture Collection. HEK-293 cells were cultured in Dulbecco’s modified Eagle’s medium (DMEM-F12, Invitrogen Life Technologies) supplemented with 5% (v/v) fetal bovine serum (FBS) (Thermo Fisher Scientific) and 1% antibiotics (penicillin 100 U/ml y streptomycin 100 μg/ml) (Gibco, Thermo Fisher). The cells were maintained at 37 °C and 5% CO2 atmosphere.
For the electrophysiological experiments, HEK-293 cells were transiently transfected with cDNA encoding human NaV1.5 (plasmid 145,374, Addgene), KV1.5 (NM_002234), and TASK-1 (NM_002246). […] The cells were incubated for 4 h in transfection medium OptiMEM (Invitrogen). […]
For Nav1.5, the effect of 6f at both concentrations was tested using a repetitive single test voltage pulse at −10 mV (during 20 ms) from a holding potential of −80 mV, with intervals of 5s between pulses. For Kv1.5 and TASK-1, ramp voltage protocols were applied with pulse intervals of 20 s, and the currents were analyzed at +40 mV.
After recording currents with stable amplitudes, the cells were treated with 6f and applied from the bath solution. Currents were continuously recorded during repetitive pulses until a stable effect was achieved. […] The inhibition percentage was calculated as follows: Inℎibition (%) = 100 ∗ (Icontrol − Idrug)/Icontrol.

human erythrocytes = assay: Hemolysis assay; assay type: cell-based; settings: 0.2–400 μM, 2 hours, 37 °C
Experimental: To evaluate cytotoxicity, the hemolysis of the compounds with the best simultaneous blocking activity on the channels (6e, 6f, 7a, 7b and 7c) was considered, modifying the protocol of Chen 2018 ([112]). Thus, non-heparinized human blood was collected. Erythrocytes were washed three times in 1× PBS (phosphate-buffered saline: NaCl, 8 g/L; KCl, 0.2 g/L; Na2HPO4, 1.44 g/L; and KH2PO4, 0.24 g/L; pH 7.4) and then used to prepare a 3% red blood cell (RBC) suspension. The assay was performed in a 96-well polypropylene microplate.
The compounds were prepared from 200 mM stock solutions in DMSO. Subsequently, 1:2 serial dilutions were made in 1× PBS, with final concentrations from 400 to 0.2 μM to a final volume of 200 μl per well. The microplate was incubated for 2 h at 37 °C and centrifuged at 3400 rpm for 5 min. Finally, 100 μl of the supernatant was transferred and measured in a 96-well plate. Hemoglobin release was monitored by photometric analysis of the supernatant at 540 nm using an Epoch Microplate Spectrophotometer (BioTek Instruments, Inc. Winooski, Vermont 05404-0998).
A 3% RBC suspension treated with Tween 20 was used to obtain total lysis as a positive control. Other authors who performed hemolysis assays have also considered this and other detergents, such as Triton X-100 and Sodium Dodecyl Sulfate (SDS) as positive controls ([113], [114], [115], [116]). The negative control was a suspension of red blood cells with PBS. Each experiment was performed in triplicate at all concentrations used. The percentage of hemolysis was calculated with the following (Equation 1), where Ad: absorbance of the dilution, A0: absorbance of the blank (RBC suspension with PBS), and At: total absorbance (positive control).(1) %hemolysis=Ad−A0/At−A0x100

T1 sequence (Q14524 whole entry): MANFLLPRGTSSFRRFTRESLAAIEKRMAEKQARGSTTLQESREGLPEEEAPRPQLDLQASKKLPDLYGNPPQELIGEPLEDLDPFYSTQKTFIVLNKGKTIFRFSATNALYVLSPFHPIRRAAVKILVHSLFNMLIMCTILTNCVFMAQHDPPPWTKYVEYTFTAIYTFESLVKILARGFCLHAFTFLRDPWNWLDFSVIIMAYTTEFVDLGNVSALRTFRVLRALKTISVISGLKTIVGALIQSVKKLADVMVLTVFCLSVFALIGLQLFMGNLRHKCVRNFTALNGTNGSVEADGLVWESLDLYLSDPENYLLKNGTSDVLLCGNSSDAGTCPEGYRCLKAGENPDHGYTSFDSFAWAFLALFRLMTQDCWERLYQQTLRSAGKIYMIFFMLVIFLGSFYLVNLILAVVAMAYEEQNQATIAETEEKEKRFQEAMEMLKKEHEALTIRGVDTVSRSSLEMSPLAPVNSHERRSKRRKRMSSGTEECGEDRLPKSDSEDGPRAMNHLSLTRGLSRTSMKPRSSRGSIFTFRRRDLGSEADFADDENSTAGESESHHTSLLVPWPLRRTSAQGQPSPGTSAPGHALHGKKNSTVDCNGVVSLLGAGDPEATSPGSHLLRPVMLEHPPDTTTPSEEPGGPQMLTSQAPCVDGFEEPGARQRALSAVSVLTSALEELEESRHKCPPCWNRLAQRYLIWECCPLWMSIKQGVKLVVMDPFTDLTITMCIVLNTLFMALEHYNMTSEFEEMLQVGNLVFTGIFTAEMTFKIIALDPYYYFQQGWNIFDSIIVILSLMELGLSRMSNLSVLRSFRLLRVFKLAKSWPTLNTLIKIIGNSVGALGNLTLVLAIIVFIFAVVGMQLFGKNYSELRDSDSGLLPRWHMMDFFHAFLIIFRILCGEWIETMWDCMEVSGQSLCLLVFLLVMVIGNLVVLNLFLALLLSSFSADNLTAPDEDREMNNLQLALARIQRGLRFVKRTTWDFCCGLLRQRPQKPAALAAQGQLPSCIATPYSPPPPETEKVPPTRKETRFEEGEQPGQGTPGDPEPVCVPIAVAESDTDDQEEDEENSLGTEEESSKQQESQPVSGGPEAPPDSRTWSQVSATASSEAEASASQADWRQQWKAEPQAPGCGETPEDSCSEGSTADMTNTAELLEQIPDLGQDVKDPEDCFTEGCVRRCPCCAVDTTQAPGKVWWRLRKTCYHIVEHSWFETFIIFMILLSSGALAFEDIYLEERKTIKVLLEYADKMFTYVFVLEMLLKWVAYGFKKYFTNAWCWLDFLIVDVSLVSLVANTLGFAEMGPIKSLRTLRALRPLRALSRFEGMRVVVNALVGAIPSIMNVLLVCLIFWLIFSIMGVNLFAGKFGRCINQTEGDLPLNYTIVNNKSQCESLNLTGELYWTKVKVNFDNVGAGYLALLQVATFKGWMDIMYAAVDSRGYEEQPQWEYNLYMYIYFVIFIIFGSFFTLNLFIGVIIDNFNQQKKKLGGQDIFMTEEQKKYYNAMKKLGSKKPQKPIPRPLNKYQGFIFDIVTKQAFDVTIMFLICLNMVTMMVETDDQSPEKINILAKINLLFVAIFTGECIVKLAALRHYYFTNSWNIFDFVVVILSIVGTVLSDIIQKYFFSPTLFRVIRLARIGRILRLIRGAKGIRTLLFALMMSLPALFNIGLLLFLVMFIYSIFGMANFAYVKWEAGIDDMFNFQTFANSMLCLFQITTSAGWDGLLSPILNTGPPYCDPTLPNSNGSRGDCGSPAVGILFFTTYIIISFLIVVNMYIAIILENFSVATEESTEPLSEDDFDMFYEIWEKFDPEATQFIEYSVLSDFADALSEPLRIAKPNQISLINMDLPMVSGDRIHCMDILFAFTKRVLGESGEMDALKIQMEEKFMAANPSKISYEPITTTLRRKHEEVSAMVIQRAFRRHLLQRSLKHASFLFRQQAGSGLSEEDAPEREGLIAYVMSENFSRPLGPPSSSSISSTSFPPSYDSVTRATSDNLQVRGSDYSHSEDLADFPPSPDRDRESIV

`CCCCN(CCCC)CC(=O)Nc1ccc(OC)cc1OC` [Compound 6f, 2-(dibutylamine)-N-(2,4-dimethoxiphenyl)acetamide] was tested, and the “Blockade of NaV1.5 in HEK cells” value (human NaV1.5) was “significant blockade by 6f only at 100 μM” and the Hemolytic effect (human erythrocytes) was “no hemolytic effect”.
